According to patent EP4104902B1, “COMPOUNDS AND M[…] SAME” (priority 2020, dated 2021):
Read-outs that look alike come from different tables or passages of the source.

Tested on: recombinant rabies virus 1088 strain expressing Gaussia Luciferase (GLuc) (1088/GLuc)
Format: cell-based

SMILES	IC50 (read-out: Anti-rabies activity) [µM]	IC50 (read-out: IC50) [µM]
O=C(O)CCN1CC2CC3CNC2(C(=O)NCc2ccc(F)cc2)C1C3Cc1ccccc1 (stereo not drawn) [IB-394]	10 to 30	
O=C(O)CCNC(=O)C12NCC3CC1CN(Cc1ccc(O)cc1)C2C3Cc1cccc2ccccc12 (stereo not drawn) [IB-410]	10 to 30	
CC(C)CCN1C[C@H]2C[C@]3(C(=O)NCc4cccc5ccccc45)NC[C@H]2[C@H]1[C@H]3Cc1ccc(O)cc1 (relative stereo) [IF-706]	< 5	
CC(C)CC1C2C3CNC1(C(=O)NCc1ccccc1)CC3CN2Cc1ccccc1 (stereo not drawn) [IF-7]	5 to 10	8.5
CC(C)CNC(=O)[C@]12NC[C@@H]3C[C@H]1CN(Cc1ccccc1)[C@H]2[C@@H]3CCCNC(=N)N (relative stereo) [IB-198]	10 to 30	
CC(C)C[C@@H]1[C@@H]2CN[C@@]3(C(=O)NC(C)C)[C@@H](C2)CN(CCCNC(=N)N)[C@@H]13 (relative stereo) [IB-176]	10 to 30	
CC(C)CC[C@@H]1[C@@H]2CN[C@@]3(C(=O)NCC(C)C)[C@@H](C2)CN(CCO)[C@@H]13 (relative stereo) [IB-372]	10 to 30	
CCCCCCNC(=O)[C@@]12C[C@@H]3CN(Cc4cccc5ccccc45)[C@@H]([C@@H]3CN1)[C@H]2CCCNC(=N)N (relative stereo) [IF-243]	< 5	
O=C(NCc1ccc(O)cc1)C12NCC3CC1CN(Cc1cccc4ccccc14)C2C3Cc1cccc2ccccc12 (stereo not drawn) [IB-417]	10 to 30	
CC(C)C[C@@H]1[C@@H]2[C@@H]3CN[C@@]1(C(=O)NCCc1ccccc1)C[C@@H]3CN2Cc1ccccc1 (relative stereo) [IF-721]	< 5	
O=C(O)CCNC(=O)C12CC3CN(CC4CCCCC4)C(C3CN1)C2Cc1cccc2ccccc12 (stereo not drawn) [IF-416]	10 to 30	
Cc1cccc(C[C@@H]2[C@@H]3[C@@H]4CN[C@@]2(C(=O)NCc2ccccc2)C[C@@H]4CN3CC(C)C)c1 (relative stereo) [IF-13]	10 to 30	13.1
O=C(NCc1ccccc1)[C@@]12C[C@@H]3CN(Cc4ccc(F)cc4)[C@@H]([C@@H]3CN1)[C@H]2Cc1ccccc1 (relative stereo) [IF-649]	< 5	
CC(C)CNC(=O)[C@@]12C[C@@H]3CN(CCc4ccccc4)[C@@H]([C@@H]3CN1)[C@H]2CC(C)C (relative stereo) [IF-738]	10 to 30	
CCOc1ccc(CN2CC3CC4CNC3(C(=O)NCc3ccccc3)C2C4CC(C)C)cc1 (stereo not drawn) [IB-878]	10 to 30	
N=C(N)NCCCNC(=O)[C@@]12C[C@@H]3CN(Cc4cccc5ccccc45)[C@@H]([C@@H]3CN1)[C@H]2Cc1ccccc1 (relative stereo) [IF-386]	10 to 30	
O=C(O)CCNC(=O)C12NCC3CC1CN(Cc1ccc(F)cc1)C2C3Cc1cccc2ccccc12 (stereo not drawn) [IB-384]	10 to 30	
CC(C)CCN1CC2CC3CNC2(C(=O)NCc2ccc(F)cc2)C1C3Cc1ccc(O)cc1 (stereo not drawn) [IB-481]	< 5	
CC(C)CNC(=O)[C@]12NC[C@@H]3C[C@H]1CN(CCC(=O)O)[C@H]2[C@@H]3CCc1ccccc1 (relative stereo) [IB-430]	< 5	
O=C(NCCO)[C@]12NC[C@@H]3C[C@H]1CN(Cc1ccccc1)[C@H]2[C@@H]3CCc1ccccc1 (relative stereo) [IB-681]	10 to 30	
CCCCCCNC(=O)[C@@]12C[C@@H]3CN(CC4CCCCC4)[C@@H]([C@@H]3CN1)[C@H]2CCCNC(=N)N (relative stereo) [IF-260]	10 to 30	
O=C(NCCc1ccccc1)[C@@]12C[C@@H]3CN(Cc4ccc(O)cc4)[C@@H]([C@@H]3CN1)[C@H]2Cc1cccc2ccccc12 (relative stereo) [IF-580]	10 to 30	
CC(C)CCNC(=O)C12NCC3CC1CN(CCO)C2C3Cc1ccccc1 (stereo not drawn) [IB-714]	< 5	

SMILES	IC50 (read-out: Anti-rabies activity) [µM]	IC50 (read-out: IC50) [µM]
O=C(NCc1ccc(F)cc1)[C@]12NC[C@@H]3C[C@H]1CN(CCO)[C@H]2[C@@H]3Cc1ccc(O)cc1 (relative stereo) [IB-549]	10 to 30	
CCOc1ccc(CN2CC3CC4(C(=O)NCc5ccccc5)N=CC3C2C4CC(C)C)cc1 (stereo not drawn) [IIF-97]	10 to 30	
NC(=O)C[C@@H]1[C@@H]2[C@@H]3CN[C@@]1(C(=O)NCCc1ccccc1)C[C@@H]3CN2Cc1ccc(F)cc1 (relative stereo) [IF-269]	10 to 30	
CC(C)CC[C@@H]1[C@@H]2CN[C@@]3(C(=O)NCCC(N)=O)[C@@H](C2)CN(Cc2ccccc2)[C@@H]13 (relative stereo) [IB-274]	10 to 30	
CCCCCCNC(=O)C12NCC3CC1CN(CCO)C2C3Cc1ccc(O)cc1 (stereo not drawn) [IB-478]	10 to 30	
CCCCCCNC(=O)[C@@]12C[C@@H]3CN(CC(C)C)[C@@H]([C@@H]3CN1)[C@H]2CC(C)C (relative stereo) [IF-569]	10 to 30	
O=C(NCc1ccc(O)cc1)[C@]12NC[C@@H]3C[C@H]1CN(CCO)[C@H]2[C@@H]3Cc1cccc2ccccc12 (relative stereo) [IB-470]	10 to 30	
CCCCCCNC(=O)C12NCC3CC1CN(CC(N)=O)C2C3Cc1cccc2ccccc12 (stereo not drawn) [IB-110]	< 5	
O=C(NCc1ccc(F)cc1)C12NCC3CC1CN(CCO)C2C3CCc1ccccc1 (stereo not drawn) [IB-492]	< 5	
CC(C)CCC1C2CNC3(C(=O)NC(C)C)C(C2)CN(Cc2ccc(O)cc2)C13 (stereo not drawn) [IB-501]	< 5	
CC(C)CCN1C[C@@H]2C[C@H]3CN[C@]2(C(=O)NCc2ccc(F)cc2)[C@@H]1[C@@H]3CC(C)C (relative stereo) [IB-553]	< 5	
CCCCCCNC(=O)[C@@]12C[C@@H]3CN(CC(N)=O)[C@@H]([C@@H]3CN1)[C@H]2Cc1cccc2ccccc12 (relative stereo) [IF-110]	< 5	
NC(=O)CC1C2C3CNC1(C(=O)NCCO)CC3CN2Cc1cccc2ccccc12 (stereo not drawn) [IF-230]	10 to 30	
O=C(NCc1ccccc1)[C@]12NC[C@@H]3C[C@H]1CN(CCO)[C@H]2[C@@H]3CCc1ccccc1 (relative stereo) [IB-618]	< 5	
CC(C)CC[C@@H]1[C@@H]2CN[C@@]3(C(=O)NCCC(N)=O)[C@@H](C2)CN(CCc2ccccc2)[C@@H]13 (relative stereo) [IB-342]	10 to 30	
CC(C)CCN1C[C@H]2C[C@]3(C(=O)NCc4cccc5ccccc45)NC[C@H]2[C@H]1[C@H]3CC(C)C (relative stereo) [IF-705]	< 5	
CC(C)CNC(=O)[C@@]12C[C@@H]3CN(CC4CCCCC4)[C@@H]([C@@H]3CN1)[C@H]2Cc1cccc2ccccc12 (relative stereo) [IF-646]	< 5	
CCCCCCNC(=O)C12NCC3CC1CN(CCO)C2C3Cc1ccccc1 (stereo not drawn) [IB-476]	< 5	
Cc1ccc(CN2CC3CC4(C(=O)NCc5ccccc5)N=CC3C2C4CC(C)C)cc1 (stereo not drawn) [IIF-86]	< 5	
CC(C)CC[C@@H]1[C@@H]2CN[C@@]3(C(=O)NCc4cccc5ccccc45)[C@@H](C2)CN(CC(N)=O)[C@@H]13 (relative stereo) [IB-84]	10 to 30	
CC(C)CNC(=O)[C@]12NC[C@@H]3C[C@H]1CN(CCc1ccccc1)[C@H]2[C@@H]3Cc1ccc(O)cc1 (relative stereo) [IB-625]	10 to 30	
O=C(NCc1ccccc1)[C@]12NC[C@H]3C[C@H]1CN(Cc1cccc4ccccc14)[C@H]2[C@@H]3Cc1ccccc1 (relative stereo) [IB-42, (3S*,3aS*,6S*,7R*,7aS*)-N,7-dibenzyl-1-(naphthalen-1-ylmethyl)octahydro-3aH-3,6-methanopyrrolo[3,2-b]pyridine-3a-carboxamide]	10 to 30	
O=C(NCc1cccc2ccccc12)[C@@]12C[C@@H]3CN(CCO)[C@@H]([C@@H]3CN1)[C@H]2Cc1ccc(O)cc1 (relative stereo) [IF-543]	10 to 30	
